Measurements: publication PMC4301837, “Aldosterone synthase inhibition: cardiorenal protection in animal disease models and translation of hormonal effects to human subjects” (Journal of Translational Medicine, 2014)
Like-named read-outs stand apart in the source and are kept apart here.

How the values were obtained:
in vivo = details: male, Sprague-Dawley, rat, plasma, po
Description: (§1) All animal procedures were conducted in accordance with an approved Novartis Animal Care and Use Committee protocol and the Guide for the Care and Use of Laboratory Animals as described previously [21]. Male S-D rats (~500 g) were purchased from Taconic Farms (Germantown, NY, USA) and acclimatized in the Novartis vivarium (12 h light/dark cycle; 72°F; 55% relative humidity) for at least 7 days before being used in experiments. Rats were provided normal chow (Harlan Teklad 8604) and water ad libitum except for a partial fast before and during an experiment.
(§2) Both rats and monkeys were surgically instrumented with chronically indwelling femoral venous and arterial catheters to allow intravenous administration of substances and repeated blood sampling.
(§3) All pharmacokinetic parameters were derived from concentration–time data by non-compartmental analyses and were calculated using WinNonlin (Enterprise, Version 5.2; Pharsight Corporation, Palo Alto, CA, USA).

[1] = rat, over the tested dose range
Description: as §1, §2, §3

[2] = tested on: dTG rats overexpressing human renin and angiotensinogen; type: in vivo; details: dTG rats, LCI699 3–100 mg/kg/day
Excerpt: To determine the effects of inhibiting aldosterone synthase in an experimental model of rapidly progressive RAS-driven hypertension with cardiac and renal damage, we used dTG rats overexpressing human renin and angiotensinogen, as previously described [22]. dTG rats are characterized by high circulating levels of human renin, Ang II and aldosterone, left ventricular (LV) hypertrophy, and rapidly progressive cardiac and renal disease with moribundity or death occurring on average by 2 months of age.
dTG rats were bred from their respective single transgenic lines at Novartis under a license agreement with the Max-Delbruck-Centrum fur Molekulare Medizin (Berlin-Buch, Germany). Age-matched male S-D rats were bred by Taconic Farms (Germantown, NY, USA). This background strain for the dTG rats served as healthy controls. Rats were maintained on a 12-h light/dark cycle at 72°F with 55% relative humidity and were provided normal food (Harlan Teklad 8604) and water ad libitum.
In studies in young dTG rats, water consumption was measured and urine collected for renal biomarkers 24 hours before the terminal experiment. On the final experimental day, rats were anesthetized to allow for echocardiographic examination. A carotid artery was then cannulated for direct recording of arterial pressure and heart rate. Blood (aortic puncture) and organ/tissue samples were collected, and the animal was euthanized.
Echocardiographic images were acquired with a Vivid 7 (GE Healthcare, Milwaukee, WI, USA) instrument and an M12L (GE Healthcare) linear probe (14 MHz) with appropriate frame rates (M-mode: 164.8 frames per second (fps); 2D mode: 210.3 fps; TDI mode: 365.5 fps). Images were analyzed offline with EchoPAC™ Dimension software (GE Healthcare).
Hearts were perfused in situ with KCl (50 mmol/L), which quickly arrested the heart and depolarized the myocytes allowing for a more standardized and reproducible assessment of myocardial cell size. Hearts were fixed in 10% formalin. Myocyte cross-sectional area was assessed on sections cut at the mid-papillary level and stained with 1:100 FITC wheat-germ agglutinin (Vector Lab, catalog # FL-1021). Digital images were taken from the LV free wall, interventricular septum and papillary muscle regions. Image analysis of round cells (~500 per heart) on cross-section was performed to estimate mean cell size.
Serum and urinary electrolytes (Na^+, K^+, and Cl^−) and creatinine and blood urea nitrogen (BUN) were assessed with a Hitachi 917 chemistry analyzer. Urinary albumin concentration was measured with a commercially available enzyme immunoassay (EIA) kit (catalog # A05102; SPI-BIO, Montigny Le Bretonneux, France) according to the manufacturer’s instructions.

in vitro [3] = details: monkey, plasma
[4] = biological target: aldosterone synthase (CYP11B2), monkey adrenal homogenate (Macaca fascicularis, UniProt A0A2K5UPL9); assay: biochemical
Chain of aldosterone synthase (CYP11B2), monkey adrenal homogenate (A0A2K5UPL9 1-503): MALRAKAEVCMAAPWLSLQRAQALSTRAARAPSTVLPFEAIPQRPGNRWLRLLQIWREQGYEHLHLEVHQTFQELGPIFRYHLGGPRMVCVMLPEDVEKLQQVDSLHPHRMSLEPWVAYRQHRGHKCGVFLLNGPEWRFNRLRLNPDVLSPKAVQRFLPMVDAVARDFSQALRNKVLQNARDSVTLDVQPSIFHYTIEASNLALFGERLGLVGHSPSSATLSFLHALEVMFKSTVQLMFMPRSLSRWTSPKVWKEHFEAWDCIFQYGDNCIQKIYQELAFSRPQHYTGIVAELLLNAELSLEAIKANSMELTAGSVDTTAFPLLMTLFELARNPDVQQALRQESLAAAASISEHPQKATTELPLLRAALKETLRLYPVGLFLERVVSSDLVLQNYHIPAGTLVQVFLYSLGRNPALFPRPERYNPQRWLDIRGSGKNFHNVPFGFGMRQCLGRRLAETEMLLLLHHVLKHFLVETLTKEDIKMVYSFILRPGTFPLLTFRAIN
Description: Rat adrenal homogenates were prepared from the adrenal glands of male Sprague-Dawley (S-D) rats as described previously [21]. Monkey CYB11B2 and CYB11B1 homogenates were prepared from the adrenal glands of female cynomolgous monkeys. Monkey adrenal gland tissue was minced and homogenized on ice in a glass tissue grinder in 1 mL of ice-cold homogenization buffer per 100 mg tissue (adding 2.7 mmol/L CaCl2 and one ethylenediaminetetraacetic acid (EDTA)-free protease inhibitor tablet per 50 mL buffer) [20]. The homogenized material was centrifuged at 450 g for 5 min at 4°C, and the supernatant brought to a final glycerol concentration of 5%, flash-frozen in liquid nitrogen, and stored at −80°C until analysis. Aldosterone, cortisol and corticosterone concentrations were quantified using 96-well plate assays (see Additional file 1).
The rat and monkey assays were conducted similarly, using 11-DOC as substrate.
(§4) Half-maximal inhibitory concentration (IC50) values were derived using a non-linear least-squares curve-fitting program (XLfit; ID Business Solutions Inc., Bridgewater, NJ, USA).
Aldosterone concentration was measured using 96-well plates. […] The amount of aldosterone, cortisol or corticosterone was calculated by comparison with a standard curve.

healthy male volunteers [5] = assay: Human safety and tolerability; type: in vivo
Description: All adverse events were recorded during the study period. In addition, vital signs and body weight were measured daily, while blood hematologic and chemistry profiles, urinalysis, physical condition and 12-lead electrocardiograms were monitored regularly throughout the study.
An analysis of variance (ANOVA) with treatment as the classification factor was performed on orthostatic changes (standing-supine) in pre-dose systolic blood pressure, diastolic blood pressure, and heart rate measurements for each of Days 1, 7, and 14 separately.
An ANCOVA with treatment as the classification factor and baseline as the covariate was performed on change from baseline (Day 1 pre-dose) to Day 7 and Day 14 for pre-dose supine and standing systolic blood pressure (SBP), diastolic blood pressure (DBP), and heart rate and for orthostatic changes (standing–supine).

[6] = biological target: recombinant rat 11β-hydroxylase (CYP11B1) (Rattus norvegicus, UniProt P15393); assay: biochemical
Chain of recombinant rat 11β-hydroxylase (CYP11B1) (P15393 25-499): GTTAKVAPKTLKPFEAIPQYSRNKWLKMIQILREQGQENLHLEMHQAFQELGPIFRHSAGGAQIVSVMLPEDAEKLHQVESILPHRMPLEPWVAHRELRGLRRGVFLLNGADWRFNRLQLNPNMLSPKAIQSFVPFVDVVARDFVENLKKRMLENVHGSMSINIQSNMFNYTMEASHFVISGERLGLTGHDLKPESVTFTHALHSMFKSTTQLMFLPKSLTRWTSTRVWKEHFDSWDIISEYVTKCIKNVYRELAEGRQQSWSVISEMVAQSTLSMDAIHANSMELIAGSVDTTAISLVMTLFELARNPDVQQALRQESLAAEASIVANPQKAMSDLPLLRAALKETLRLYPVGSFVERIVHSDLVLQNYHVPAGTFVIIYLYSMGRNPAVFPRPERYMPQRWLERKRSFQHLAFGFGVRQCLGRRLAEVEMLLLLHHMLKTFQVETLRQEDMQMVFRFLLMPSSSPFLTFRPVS
Description: (§5) Recombinant rat CYP11B2 and CYP11B1 enzymes were prepared similarly. All cell lines were maintained in Dulbecco’s modified Eagle’s medium supplemented with 10% fetal bovine serum, 0.5× antibiotic, 800 μg/mL geneticin and 250 μg/mL hygromycin (double-selection medium; all from Invitrogen, Carlsbad, CA, USA).
(§6) Human CYP11B2 and CYP11B1 assays were performed as described previously [20]. The rat and monkey assays were conducted similarly, using 11-DOC as substrate.
as §4
(§7) Aldosterone concentration was measured using 96-well plates. Each test sample was incubated with 0.02 µCi D-[1,2,6,7-^3H(N)]aldosterone (PerkinElmer, Boston, MA, USA) and 0.2 µg anti-aldosterone antibody (ATCC, Manassas, VA, USA) in phosphate-buffered saline containing 0.1% Triton X-100, 0.1% bovine serum albumin, and 12% glycerol (in a total volume of 200 µL) at room temperature for 1 h. Anti-mouse polyvinyltoluene (PVT) scintillation proximity assay (SPA) beads (50 µL: GE Health Sciences, Piscataway, NJ, USA) were then added to each well and incubated overnight at room temperature prior to counting in a Microbeta plate counter (PerkinElmer). […] The amount of aldosterone, cortisol or corticosterone was calculated by comparison with a standard curve.

[7] = biological target: recombinant rat aldosterone synthase (CYP11B2) (Rattus norvegicus, UniProt P30099); assay: biochemical
Chain of recombinant rat aldosterone synthase (CYP11B2) (P30099 35-510): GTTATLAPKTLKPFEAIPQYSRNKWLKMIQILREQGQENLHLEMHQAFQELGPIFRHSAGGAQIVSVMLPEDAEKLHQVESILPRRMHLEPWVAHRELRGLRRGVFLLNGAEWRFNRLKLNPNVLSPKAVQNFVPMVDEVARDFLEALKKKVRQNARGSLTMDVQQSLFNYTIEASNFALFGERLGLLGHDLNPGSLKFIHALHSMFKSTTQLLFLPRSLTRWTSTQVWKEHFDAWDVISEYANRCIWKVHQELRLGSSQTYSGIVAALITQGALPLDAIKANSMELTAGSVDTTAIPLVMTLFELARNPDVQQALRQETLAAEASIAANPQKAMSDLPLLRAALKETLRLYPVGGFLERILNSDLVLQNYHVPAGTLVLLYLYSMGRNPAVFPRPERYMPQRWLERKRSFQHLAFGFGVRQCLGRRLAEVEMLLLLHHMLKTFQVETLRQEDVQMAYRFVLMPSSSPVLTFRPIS
Description: as §5, §6, §4, §7

in vitro [8] = details: rat, plasma
[9] = tested on: patients with Cushing’s disease; details: 12 patients, 2–50 mg twice daily, cited from earlier work
[10] = tested on: Ang II-stimulated aldosterone release; parameters: method as in D. Rigel, personal communication; details: dogs; ref D. Rigel, personal communication; read-out: EC50, inhibition of Ang II-stimulated aldosterone release; cited from earlier work
[11] = tested on: dTG rats overexpressing human renin and angiotensinogen; assay: Survival study in young dTG rats; type: in vivo, rat
ACTH-stimulated cortisol = details: rhesus monkeys, cited from earlier work
in vitro [12] = details: human, plasma
healthy male volunteers [13] = tested on: healthy male volunteers

N#Cc1ccc([C@H]2CCc3cncn32)c(F)c1 [LCI699]
half-life (in vivo): 2 to 5 h | dose proportionality of pharmacokinetics [1]: dose-proportional | effect on urinary corticosterone excretion [2]: reduced | effect on LV fractional shortening ([2]; eplerenone 30 mg/kg): dose-dependently increased | effect on myocardial cell size ([2]; eplerenone 30 mg/kg): normalized | effect on BUN levels ([2]; eplerenone 30 mg/kg/day): dose-dependently normalized | effect on mean arterial pressure ([2]; eplerenone 30 mg/kg/day): neither LCI699 nor eplerenone normalized arterial pressure | effect on serum potassium ([2]; eplerenone 30 mg/kg/day): corrected serum potassium in a dose-dependent manner | effect on urinary albumin excretion ([2]; eplerenone 30 mg/kg/day): dose-dependently normalized | effect on urinary aldosterone excretion ([2]; eplerenone 30 mg/kg/day): reduced | effect on urine output ([2]; eplerenone 30 mg/kg/day): dose-dependently normalized | effect on LV weight ([2]; eplerenone 30 mg/kg, data not shown): reduced | effect on water intake ([2]; data not shown): dose-dependently normalized | fraction unbound (in vitro [3]): 0.734 | IC50 [4]: 12 ± 1 nM | subjects with plasma sodium levels at or below 135 mmol/L (healthy male volunteers [5]; LCI699 0.5 mg, multiple-dose phase): two | subjects with pre-specified markers of hypoaldosteronism (mild hyponatremia, postural tachycardia, decreased body weight), discontinued (healthy male volunteers [5]; LCI699 3 mg, multiple-dose): three | subjects with plasma sodium levels at or below 135 mmol/L (healthy male volunteers [5]; LCI699 3 mg, multiple-dose phase): four | tolerability (healthy male volunteers [5]; healthy subjects, single doses up to 200 mg, multiple doses): well tolerated | adverse events considered severe (abnormal ACTH-stimulation test) (healthy male volunteers [5]; multiple-dose phase, LCI699 10 mg): only one adverse event | changes in supine systolic or diastolic blood pressure or heart rate compared with placebo (healthy male volunteers [5]; single or multiple doses): no consistent changes | IC50 [6]: 410 ± 5 nM | IC50 [7]: 160 ± 9 nM | fraction unbound (in vitro [8]): 0.641 | patients with urinary free cortisol below upper limit of normal ([9]; 70 days): 11 patients | tolerability [9]: well tolerated | EC50 [10]: 41 nM | doses at which survival was significantly prolonged ([11]; young dTG rats without established cardiorenal disease, P < 0.01): ≥ 10 mg/kg/day | maximum median survival time ([11]; young dTG rats, dose–median survival curves): 9.5 weeks | effect on ACTH-stimulated cortisol (ACTH-stimulated cortisol; 3 mg/kg i.v.): reduced ACTH-stimulated cortisol | effect on ACTH-stimulated cortisol (ACTH-stimulated cortisol; i.v. 0.003–1 mg/kg): no effect | fraction unbound (in vitro [12]): 0.734 | plateau of maximal inhibition of plasma aldosterone (healthy male volunteers [13]; at the 10 mg single dose, no further reduction up to 200 mg): approximately 80% | increase in 11-deoxycortisol (healthy male volunteers [13]; single dose 100 mg): 942% | increase in 11-deoxycortisol (healthy male volunteers [13]; single dose 200 mg): 584% | decrease in plasma cortisol (healthy male volunteers [13]; single dose 200 mg, 24 h post-dose, P = 0.029 vs placebo): 19% | effect on plasma cortisol (healthy male volunteers [13]; single doses 3–100 mg): did not significantly alter | reductions in 24-h urinary cortisol (healthy male volunteers [13]; single doses of 30, 100 or 200 mg): 34–42%
